# Data: ChEMBL document CHEMBL1201862, “PubChem BioAssay data set” (2004)
# Calls of active or inactive are those of the source.
# What was measured:
# Aminopeptidase N = target: T1, Aminopeptidase N (Plasmodium falciparum FcB1/Columbia, UniProt O96935); assay: P. falciparum M1AAP inhibitors, biochemical, fluorogenic H-Leu-NHMec substrate, 1536-well (AID 1445); set-up: species or system Plasmodium falciparum 3D7, 3D7
# T1 sequence (O96935 whole entry): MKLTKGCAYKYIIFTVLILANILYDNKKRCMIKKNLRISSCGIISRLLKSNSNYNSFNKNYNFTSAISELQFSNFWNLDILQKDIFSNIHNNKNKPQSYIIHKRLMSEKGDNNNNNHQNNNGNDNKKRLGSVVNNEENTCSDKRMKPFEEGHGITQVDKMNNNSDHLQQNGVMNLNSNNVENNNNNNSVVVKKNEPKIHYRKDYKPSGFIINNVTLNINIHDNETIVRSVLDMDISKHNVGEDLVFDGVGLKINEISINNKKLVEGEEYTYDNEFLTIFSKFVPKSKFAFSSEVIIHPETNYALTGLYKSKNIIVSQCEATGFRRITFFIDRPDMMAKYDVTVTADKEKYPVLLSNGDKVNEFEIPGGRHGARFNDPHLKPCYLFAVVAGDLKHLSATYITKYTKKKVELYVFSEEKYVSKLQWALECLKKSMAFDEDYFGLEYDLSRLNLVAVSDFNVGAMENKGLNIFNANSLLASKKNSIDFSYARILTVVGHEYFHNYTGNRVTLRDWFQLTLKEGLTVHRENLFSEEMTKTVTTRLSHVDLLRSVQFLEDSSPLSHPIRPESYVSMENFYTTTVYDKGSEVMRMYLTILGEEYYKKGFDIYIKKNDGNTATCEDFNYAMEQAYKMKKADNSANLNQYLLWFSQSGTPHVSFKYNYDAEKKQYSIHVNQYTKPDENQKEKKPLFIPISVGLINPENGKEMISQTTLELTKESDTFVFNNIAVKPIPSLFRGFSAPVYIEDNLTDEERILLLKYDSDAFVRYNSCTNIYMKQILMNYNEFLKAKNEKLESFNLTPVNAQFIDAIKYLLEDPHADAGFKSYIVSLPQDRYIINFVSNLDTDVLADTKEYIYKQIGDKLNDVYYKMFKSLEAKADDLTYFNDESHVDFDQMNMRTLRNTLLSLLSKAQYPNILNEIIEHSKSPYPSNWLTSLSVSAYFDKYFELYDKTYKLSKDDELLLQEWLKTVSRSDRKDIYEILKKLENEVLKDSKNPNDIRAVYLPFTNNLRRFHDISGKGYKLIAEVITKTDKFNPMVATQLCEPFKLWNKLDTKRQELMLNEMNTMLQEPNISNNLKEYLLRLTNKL
# [1] = inhibitors of Bluetongue virus cytopathic effect, confirmation, arbovirus, BSR cells (AID 1250); assay type: functional;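 also: protection from viral cytopathic effect measured as cell viability by ATP luminescence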
# [2] = target: Induced myeloid leukemia cell differentiation protein Mcl-1 (Homo sapiens, UniProt Q07820); assay type: functional
# [3] = target: DNA (cytosine-5)-methyltransferase 1 (Homo sapiens, UniProt P26358); assay: DNMT1 methyltransferase inhibitors, confirmation, biochemical, fluorescent molecular beacon (AID 602386); assay type: functional
# [4] = target: 26S proteasome non-ATPase regulatory subunit 14 (Homo sapiens, UniProt O00487); assay: inhibition of proteasome subunit RPN11 – biochemical, fluorescence polarization, uHTS hits, confirmation (AID 602368); assay type: functional
# [5] = target: 72 kDa type IV collagenase (Homo sapiens, UniProt P08253); assay: Dose Response validation of uHTS RPN11 inhibitor hits using a MMP-2 Fluorescence assay.; assay type: functional
# Prothrombin = Prothrombin (Bos taurus, UniProt P00735); assay: thrombin inhibition, dose response, biochemical, fluorescence polarization, uHTS hits (AID 602369); assay type: functional
# [6] = target: T2, Histone-lysine N-methyltransferase NSD2 (Homo sapiens, UniProt O96028); assay type: biochemical
# T2 sequence (O96028 whole entry): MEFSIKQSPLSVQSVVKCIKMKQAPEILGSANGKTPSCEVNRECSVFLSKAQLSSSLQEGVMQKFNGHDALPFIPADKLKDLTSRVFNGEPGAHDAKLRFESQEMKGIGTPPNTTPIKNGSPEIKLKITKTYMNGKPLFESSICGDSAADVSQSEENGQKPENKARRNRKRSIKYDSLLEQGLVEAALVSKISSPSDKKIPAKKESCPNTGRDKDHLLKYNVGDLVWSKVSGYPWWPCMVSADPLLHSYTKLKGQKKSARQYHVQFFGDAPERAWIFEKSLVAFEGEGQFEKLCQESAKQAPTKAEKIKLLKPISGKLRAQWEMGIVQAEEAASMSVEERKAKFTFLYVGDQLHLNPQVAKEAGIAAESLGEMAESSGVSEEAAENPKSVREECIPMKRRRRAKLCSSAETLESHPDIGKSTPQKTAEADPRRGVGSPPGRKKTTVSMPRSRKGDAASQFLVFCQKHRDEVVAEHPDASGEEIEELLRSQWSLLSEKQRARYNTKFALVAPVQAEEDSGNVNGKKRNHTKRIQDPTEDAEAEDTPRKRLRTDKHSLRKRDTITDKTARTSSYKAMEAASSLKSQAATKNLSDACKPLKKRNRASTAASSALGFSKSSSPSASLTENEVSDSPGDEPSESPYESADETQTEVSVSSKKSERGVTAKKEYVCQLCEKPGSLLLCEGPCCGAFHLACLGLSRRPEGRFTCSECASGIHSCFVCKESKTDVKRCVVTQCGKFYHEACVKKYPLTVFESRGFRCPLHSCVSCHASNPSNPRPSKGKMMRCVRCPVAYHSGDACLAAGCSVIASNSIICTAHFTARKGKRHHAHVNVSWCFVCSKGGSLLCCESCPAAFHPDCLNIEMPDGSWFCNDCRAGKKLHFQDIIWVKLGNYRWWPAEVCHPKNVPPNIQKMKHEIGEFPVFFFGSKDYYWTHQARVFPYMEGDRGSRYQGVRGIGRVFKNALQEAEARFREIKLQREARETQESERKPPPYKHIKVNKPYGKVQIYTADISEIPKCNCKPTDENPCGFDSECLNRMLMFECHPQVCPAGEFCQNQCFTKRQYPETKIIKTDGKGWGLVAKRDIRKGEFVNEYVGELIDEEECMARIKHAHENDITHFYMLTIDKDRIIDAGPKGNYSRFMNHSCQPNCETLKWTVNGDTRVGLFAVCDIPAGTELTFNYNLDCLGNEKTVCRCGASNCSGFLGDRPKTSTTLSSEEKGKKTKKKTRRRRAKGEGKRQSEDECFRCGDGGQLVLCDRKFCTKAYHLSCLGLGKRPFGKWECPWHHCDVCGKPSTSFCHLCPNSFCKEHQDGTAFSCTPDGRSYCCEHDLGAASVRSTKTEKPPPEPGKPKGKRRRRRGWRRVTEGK
# [7] = target: Muscarinic acetylcholine receptor M2 (Homo sapiens, UniProt P08172); assay: Discovery of novel allosteric modulators of the M1 muscarinic receptor: Agonist NMS competition at M2. [Related pubchem assays: 626 (Discovery of Novel Allosteric Modulators of the M1 Muscarinic Receptor: Agonist Primary Screen), 1488 (Discovery of novel allosteric modulators of the M1 muscarinic receptor: Agonist Confirmation Assay)]; assay type: functional
# [8] = target: Muscarinic acetylcholine receptor M5 (Homo sapiens, UniProt P08912); assay: (§1) Discovery of novel allosteric modulators of the M1 muscarinic receptor: Agonist NMS competition at M5. [Related pubchem assays: 1488 (Discovery of novel allosteric modulators of the M1 muscarinic receptor: Agonist Confirmation Assay), 626 (Discovery of Novel Allosteric Modulators of the M1 Muscarinic Receptor: Agonist Primary Screen)]; assay type: functional
# [9] = target: Muscarinic acetylcholine receptor M3 (Homo sapiens, UniProt P20309); assay: as §1, with “M3.” for “M5.”; assay type: functional
# [10] = target: Muscarinic acetylcholine receptor M1 (Rattus norvegicus, UniProt P08482); assay: Discovery of novel allosteric modulators of the M1 muscarinic receptor: Agonist NMS binding at M1. [Related pubchem assays: 626 ]
# Bcl-2-like protein 10 = target: T3, Bcl-2-like protein 10 (Homo sapiens, UniProt Q9HD36); assay: Biochemical TR3 FP assay of Bcl-B inhibitor potency, EC50 (AID 1243); assay type: functional
# T3 sequence (Q9HD36 whole entry): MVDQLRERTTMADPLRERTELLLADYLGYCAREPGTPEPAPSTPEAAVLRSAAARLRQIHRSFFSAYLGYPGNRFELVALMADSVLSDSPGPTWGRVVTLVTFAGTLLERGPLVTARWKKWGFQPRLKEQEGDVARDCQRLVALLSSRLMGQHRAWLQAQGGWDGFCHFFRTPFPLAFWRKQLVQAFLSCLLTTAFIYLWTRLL
# [11] = A Cell Based Secondary Assay To Explore Cytotoxicity of Compounds that Sensitize Mycobacterium Tuberculosis to Beta-Lactam Antibiotics.; assay type: functional
# Beta-lactamase [12] = target: Beta-lactamase (Salmonella choleraesuis (strain SC-B67), UniProt Q5J463); assay: Epi-absorbance-based counterscreen for selective VIM-2 inhibitors: dose response biochemical high throughput screening assay to identify inhibitors of TEM-1 serine-beta-lactamase.
# Leucine aminopeptidase = target: T4, Leucine aminopeptidase (Plasmodium falciparum 3D7, UniProt Q8IL11); assay: P. falciparum M17LAP inhibitors, primary screen, biochemical, fluorogenic H-Leu-NHMec substrate, 1536-well (AID 1619); assay type: functional
# T4 sequence (Q8IL11 whole entry): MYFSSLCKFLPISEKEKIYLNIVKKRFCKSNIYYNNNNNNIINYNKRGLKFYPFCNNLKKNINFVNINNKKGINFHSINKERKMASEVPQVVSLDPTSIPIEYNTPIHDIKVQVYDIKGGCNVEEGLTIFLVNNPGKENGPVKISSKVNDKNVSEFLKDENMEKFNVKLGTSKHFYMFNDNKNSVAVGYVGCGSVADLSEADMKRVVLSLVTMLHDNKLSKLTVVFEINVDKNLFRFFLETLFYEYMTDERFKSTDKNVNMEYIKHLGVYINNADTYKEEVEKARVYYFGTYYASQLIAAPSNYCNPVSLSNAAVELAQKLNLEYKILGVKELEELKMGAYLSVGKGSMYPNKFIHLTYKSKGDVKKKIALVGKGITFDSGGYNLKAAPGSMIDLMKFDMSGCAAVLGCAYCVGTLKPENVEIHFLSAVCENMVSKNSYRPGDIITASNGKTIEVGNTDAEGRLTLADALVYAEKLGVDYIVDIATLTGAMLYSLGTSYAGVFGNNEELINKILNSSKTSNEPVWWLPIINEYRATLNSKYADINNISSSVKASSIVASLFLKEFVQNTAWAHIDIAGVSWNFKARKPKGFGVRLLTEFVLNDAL
# Beta-lactamase [13] = target: T5, Beta-lactamase (Pseudomonas aeruginosa, UniProt Q79MP6); assay: IMP-1 metallo-beta-lactamase inhibitors, dose response, selectivity assay for VIM-2 inhibitor project, biochemical, epi-absorbance (AID 1920)
# Beta Lactamase [14] = target: T6, Beta Lactamase (Pseudomonas aeruginosa, UniProt Q932Y6); assay: VIM-2 metallo-beta-lactamase inhibitor potency, dose response, biochemical, epi-absorbance readout, selective inhibitors (AID 1919)
# [15] = HIV-1 Env-mediated cell fusion inhibitors, dose response, CCR5-tropic Env (AID 2279); assay type: functional
# Beta-lactamase [16] = target: T5, Beta-lactamase; assay: […] counterscreen for selective VIM-2 inhibitors: dose response biochemical high throughput screening assay to identify inhibitors of IMP-1 metallo-beta-lactamase.
# Beta Lactamase [17] = target: T6, Beta Lactamase; assay: VIM-2 inhibitor FRET-based artefact check, dose response, artefact control for selective VIM-2 inhibitor project, biochemical, FRET readout, CCF2 substrate (AID 1926)
# [18] = target: T7, Calpain-2 catalytic subunit (Sus scrofa, UniProt P43367); assay: pig calpain II inhibitor potency, dose response, biochemical, fluorogenic peptide substrate (AID 1420); assay type: functional
# T7 sequence (P43367 whole entry): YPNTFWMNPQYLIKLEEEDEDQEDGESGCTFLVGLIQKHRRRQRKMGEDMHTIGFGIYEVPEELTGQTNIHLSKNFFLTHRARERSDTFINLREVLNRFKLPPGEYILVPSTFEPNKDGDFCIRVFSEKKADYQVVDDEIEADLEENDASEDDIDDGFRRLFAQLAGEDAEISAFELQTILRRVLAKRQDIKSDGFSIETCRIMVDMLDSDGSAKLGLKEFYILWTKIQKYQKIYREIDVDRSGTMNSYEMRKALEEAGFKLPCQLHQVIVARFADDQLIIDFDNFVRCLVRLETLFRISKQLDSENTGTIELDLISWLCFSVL
# [19] = target: T8, Probable nicotinate-nucleotide adenylyltransferase (Staphylococcus aureus (strain N315), UniProt P65502); assay type: functional, Staphylococcus aureus subsp. aureus N315;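 as to IC50 Mean: confirmatory dose-response retesting of NadD inhibitor hits first found in an ultra-high-throughput screen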
# [20] = target: T8, Probable nicotinate-nucleotide adenylyltransferase; assay type: functional, Staphylococcus aureus subsp. aureus N315; conditions: read-out: IC50_Mean
# T6 sequence (Q932Y6 whole entry, the tested form may be a part): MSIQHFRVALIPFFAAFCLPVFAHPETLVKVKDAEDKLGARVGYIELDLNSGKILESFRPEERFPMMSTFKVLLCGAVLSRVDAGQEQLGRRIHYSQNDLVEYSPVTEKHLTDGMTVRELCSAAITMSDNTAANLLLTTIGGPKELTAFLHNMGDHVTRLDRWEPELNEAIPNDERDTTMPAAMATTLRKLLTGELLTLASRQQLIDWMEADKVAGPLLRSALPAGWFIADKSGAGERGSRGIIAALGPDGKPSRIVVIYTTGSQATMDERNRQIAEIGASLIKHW
# T8 sequence (P65502 whole entry): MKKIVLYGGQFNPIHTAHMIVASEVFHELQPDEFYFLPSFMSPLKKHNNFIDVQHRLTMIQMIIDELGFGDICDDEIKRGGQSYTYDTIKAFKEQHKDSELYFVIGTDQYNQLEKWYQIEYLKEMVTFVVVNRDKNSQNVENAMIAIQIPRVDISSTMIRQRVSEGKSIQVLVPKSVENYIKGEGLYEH
# T5 sequence (Q79MP6 whole entry): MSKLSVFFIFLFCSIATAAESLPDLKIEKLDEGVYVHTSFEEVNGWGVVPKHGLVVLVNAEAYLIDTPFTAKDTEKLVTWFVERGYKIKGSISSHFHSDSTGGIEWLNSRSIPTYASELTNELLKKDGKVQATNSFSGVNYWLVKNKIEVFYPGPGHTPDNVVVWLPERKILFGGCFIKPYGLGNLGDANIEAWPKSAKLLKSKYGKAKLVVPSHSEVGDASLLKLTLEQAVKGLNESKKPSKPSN
# Sequence of 72 kDa type IV collagenase (P08253 whole entry): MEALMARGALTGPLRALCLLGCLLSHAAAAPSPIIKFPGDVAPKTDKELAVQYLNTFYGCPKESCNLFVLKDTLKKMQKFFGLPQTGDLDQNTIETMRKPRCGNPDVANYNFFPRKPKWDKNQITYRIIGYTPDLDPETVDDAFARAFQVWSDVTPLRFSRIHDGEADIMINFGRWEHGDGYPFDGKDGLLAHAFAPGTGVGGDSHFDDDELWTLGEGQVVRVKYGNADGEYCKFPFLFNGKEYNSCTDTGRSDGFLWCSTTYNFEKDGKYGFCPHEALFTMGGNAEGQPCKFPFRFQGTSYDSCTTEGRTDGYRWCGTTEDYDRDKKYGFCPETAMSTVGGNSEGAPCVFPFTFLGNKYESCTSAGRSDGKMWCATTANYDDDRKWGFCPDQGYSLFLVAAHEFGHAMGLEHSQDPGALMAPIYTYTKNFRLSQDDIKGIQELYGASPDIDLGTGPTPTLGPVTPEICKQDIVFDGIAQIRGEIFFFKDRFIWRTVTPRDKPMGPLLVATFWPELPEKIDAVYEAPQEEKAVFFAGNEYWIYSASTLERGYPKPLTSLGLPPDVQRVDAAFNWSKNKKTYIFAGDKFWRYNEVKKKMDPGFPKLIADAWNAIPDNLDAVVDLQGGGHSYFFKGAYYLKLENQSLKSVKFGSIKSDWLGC
# Sequence of Muscarinic acetylcholine receptor M2 (P08172 whole entry): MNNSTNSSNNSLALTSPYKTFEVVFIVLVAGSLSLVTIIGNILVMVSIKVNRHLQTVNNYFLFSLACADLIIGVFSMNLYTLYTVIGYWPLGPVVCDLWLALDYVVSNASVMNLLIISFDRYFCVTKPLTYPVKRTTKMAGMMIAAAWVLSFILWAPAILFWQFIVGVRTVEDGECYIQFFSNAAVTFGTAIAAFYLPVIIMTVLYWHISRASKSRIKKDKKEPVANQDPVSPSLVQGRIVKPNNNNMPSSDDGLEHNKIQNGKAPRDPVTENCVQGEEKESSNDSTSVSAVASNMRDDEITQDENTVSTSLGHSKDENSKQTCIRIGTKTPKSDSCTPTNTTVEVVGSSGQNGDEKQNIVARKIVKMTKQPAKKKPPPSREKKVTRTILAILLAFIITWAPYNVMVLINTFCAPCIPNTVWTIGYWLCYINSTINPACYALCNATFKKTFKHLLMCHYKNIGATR
# Sequence of 26S proteasome non-ATPase regulatory subunit 14 (O00487 whole entry): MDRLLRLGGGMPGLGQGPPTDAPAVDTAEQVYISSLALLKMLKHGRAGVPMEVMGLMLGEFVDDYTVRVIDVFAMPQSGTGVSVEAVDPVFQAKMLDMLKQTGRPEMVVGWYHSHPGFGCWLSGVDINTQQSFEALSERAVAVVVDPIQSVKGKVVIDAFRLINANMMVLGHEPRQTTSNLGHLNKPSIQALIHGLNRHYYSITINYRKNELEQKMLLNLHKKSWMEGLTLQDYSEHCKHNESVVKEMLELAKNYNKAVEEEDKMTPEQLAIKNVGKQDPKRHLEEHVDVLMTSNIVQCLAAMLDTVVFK
# Sequence of Induced myeloid leukemia cell differentiation protein Mcl-1 (Q07820 whole entry): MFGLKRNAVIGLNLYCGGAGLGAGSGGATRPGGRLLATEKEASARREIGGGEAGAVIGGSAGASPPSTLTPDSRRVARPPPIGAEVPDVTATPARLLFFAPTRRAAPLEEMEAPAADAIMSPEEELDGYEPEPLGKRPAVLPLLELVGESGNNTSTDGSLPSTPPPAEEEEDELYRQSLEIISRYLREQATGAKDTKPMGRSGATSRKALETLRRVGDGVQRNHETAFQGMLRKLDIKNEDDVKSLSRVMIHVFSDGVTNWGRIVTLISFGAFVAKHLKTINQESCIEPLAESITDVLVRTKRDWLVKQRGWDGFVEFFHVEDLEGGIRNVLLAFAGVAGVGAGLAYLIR
# Sequence of Muscarinic acetylcholine receptor M3 (P20309 whole entry): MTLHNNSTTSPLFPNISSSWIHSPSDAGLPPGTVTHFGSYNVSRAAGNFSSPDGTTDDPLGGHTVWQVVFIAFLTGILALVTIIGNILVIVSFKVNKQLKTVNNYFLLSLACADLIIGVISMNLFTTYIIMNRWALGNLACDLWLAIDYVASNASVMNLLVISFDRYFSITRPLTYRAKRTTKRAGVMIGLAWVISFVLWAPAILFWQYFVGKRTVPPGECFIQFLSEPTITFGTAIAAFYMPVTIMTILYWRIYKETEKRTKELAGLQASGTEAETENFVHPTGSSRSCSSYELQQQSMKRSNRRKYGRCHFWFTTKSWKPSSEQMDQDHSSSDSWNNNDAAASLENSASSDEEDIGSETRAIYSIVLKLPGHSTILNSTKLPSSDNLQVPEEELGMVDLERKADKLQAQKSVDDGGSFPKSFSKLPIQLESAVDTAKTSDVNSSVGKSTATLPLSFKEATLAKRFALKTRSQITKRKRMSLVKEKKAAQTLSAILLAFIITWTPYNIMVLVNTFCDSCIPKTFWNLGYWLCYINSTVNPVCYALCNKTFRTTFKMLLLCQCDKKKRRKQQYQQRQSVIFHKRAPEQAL
# Sequence of DNA (cytosine-5)-methyltransferase 1 (P26358 whole entry): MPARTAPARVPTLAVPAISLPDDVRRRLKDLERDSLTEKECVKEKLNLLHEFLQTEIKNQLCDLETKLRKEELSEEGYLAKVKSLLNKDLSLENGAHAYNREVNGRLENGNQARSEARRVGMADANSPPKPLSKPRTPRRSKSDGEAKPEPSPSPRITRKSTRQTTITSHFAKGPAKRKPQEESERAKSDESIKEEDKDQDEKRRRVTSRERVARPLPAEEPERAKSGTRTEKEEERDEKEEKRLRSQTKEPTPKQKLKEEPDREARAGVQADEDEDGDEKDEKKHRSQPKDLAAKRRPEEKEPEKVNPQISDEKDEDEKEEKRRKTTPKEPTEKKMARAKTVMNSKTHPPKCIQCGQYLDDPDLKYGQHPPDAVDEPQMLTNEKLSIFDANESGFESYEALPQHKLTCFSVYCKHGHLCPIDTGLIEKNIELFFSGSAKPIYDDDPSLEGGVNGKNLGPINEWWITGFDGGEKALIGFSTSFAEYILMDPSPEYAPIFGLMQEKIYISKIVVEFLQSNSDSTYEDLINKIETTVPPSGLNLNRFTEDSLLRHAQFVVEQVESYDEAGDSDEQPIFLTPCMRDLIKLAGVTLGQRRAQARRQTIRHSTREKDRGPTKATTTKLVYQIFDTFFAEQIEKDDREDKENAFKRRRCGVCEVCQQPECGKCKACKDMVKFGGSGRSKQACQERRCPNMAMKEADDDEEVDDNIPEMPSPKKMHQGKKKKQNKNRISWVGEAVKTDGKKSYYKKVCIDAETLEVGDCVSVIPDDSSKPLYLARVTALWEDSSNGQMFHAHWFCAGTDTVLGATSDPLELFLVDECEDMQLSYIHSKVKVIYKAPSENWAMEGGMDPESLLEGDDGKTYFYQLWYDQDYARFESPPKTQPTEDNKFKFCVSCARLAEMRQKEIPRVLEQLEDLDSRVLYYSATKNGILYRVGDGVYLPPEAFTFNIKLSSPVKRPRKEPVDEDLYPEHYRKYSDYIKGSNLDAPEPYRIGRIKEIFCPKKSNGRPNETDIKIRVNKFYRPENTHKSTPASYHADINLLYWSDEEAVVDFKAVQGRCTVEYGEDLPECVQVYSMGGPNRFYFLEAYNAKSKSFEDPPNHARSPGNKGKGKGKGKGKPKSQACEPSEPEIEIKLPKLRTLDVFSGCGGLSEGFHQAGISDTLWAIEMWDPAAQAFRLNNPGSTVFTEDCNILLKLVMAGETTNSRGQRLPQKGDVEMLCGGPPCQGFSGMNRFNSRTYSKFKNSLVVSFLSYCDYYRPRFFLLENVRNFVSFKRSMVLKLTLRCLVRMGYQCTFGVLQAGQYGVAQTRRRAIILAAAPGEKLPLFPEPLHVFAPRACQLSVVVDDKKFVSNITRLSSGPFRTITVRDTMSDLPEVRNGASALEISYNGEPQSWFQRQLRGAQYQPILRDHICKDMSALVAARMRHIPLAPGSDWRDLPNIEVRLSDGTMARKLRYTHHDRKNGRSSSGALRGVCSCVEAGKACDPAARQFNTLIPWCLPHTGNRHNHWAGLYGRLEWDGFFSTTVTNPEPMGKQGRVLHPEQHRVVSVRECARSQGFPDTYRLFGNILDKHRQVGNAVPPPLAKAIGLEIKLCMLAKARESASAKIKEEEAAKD
# Sequence of Beta-lactamase (Salmonella choleraesuis (strain SC-B67), UniProt Q5J463) (Q5J463 whole entry): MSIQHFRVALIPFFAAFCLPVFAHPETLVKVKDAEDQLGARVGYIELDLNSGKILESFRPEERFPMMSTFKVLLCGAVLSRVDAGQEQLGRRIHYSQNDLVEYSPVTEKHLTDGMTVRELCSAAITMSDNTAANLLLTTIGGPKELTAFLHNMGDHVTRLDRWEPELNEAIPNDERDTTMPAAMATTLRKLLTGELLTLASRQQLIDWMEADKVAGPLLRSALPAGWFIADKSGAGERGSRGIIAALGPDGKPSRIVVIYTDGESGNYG
smiles,measurement,setting,value
Cc1ccc(-n2cccc2/C=C2/C(=N)N3C(=NC2=O)SN=C3S(C)(=O)=O)cc1Cl,IC50,Aminopeptidase N,15 µM (active)
same,IC50,[1],28.9 µM (active)
same,IC50,[2],1.86 µM (active)
same,IC50,[3],7.72 µM (active)
same,IC50,[4],13.4 µM (active)
same,IC50,[5],> 100 µM (inactive)
same,IC50,Prothrombin,21.1 µM (active)
same,AC50,[6],8.75 µM (active)
CCOC(=O)N1CCC(NCCNC(=O)c2cccs2)CC1,EC50,[7],48.9 µM (inconclusive)
same,EC50,[8],88.4 µM (inconclusive)
same,EC50,[9],77 µM (inconclusive)
same,EC50,[10],14.4 µM (inconclusive)
O=C1NN(c2ccc(F)c(Cl)c2)C(=O)/C1=C\c1ccco1,EC50,Bcl-2-like protein 10,33.4 µM (active)
CCOc1ccccc1C(=O)Nc1cccc(-c2ccc3nncn3n2)c1,CC50,[11],> 40 µM (active)
O=C(O)c1cccc(NC(=S)N/N=C/c2ccccc2OCc2cccc(Br)c2)c1,IC50,Beta-lactamase [12],> 59.6 µM (inactive)
same,IC50,Leucine aminopeptidase,15.8 µM (active)
same,IC50,Beta-lactamase [13],> 59.6 µM (inactive)
same,IC50,Beta Lactamase [14],9.15 µM (active)
same,IC50,[15],44.4 µM (active)
same,IC50,Beta-lactamase [16],> 59.6 µM (inactive)
same,IC50,Beta Lactamase [17],1.16 µM (active)
same,IC50,[18],> 50 µM (not active)
same,IC50,[19],5.97 µM (active)
same,IC50,[20],15.8 µM (active)
